Measurements taken from patent US10441562B2, “Aromatic farnesyl compound and application thereof” (INSTITUTE OF MICROBIOLOGY, CHINESE ACADEMY OF SCIENCES, priority 2015, dated 2019).
Marks after values point to notes of the source that are not given here.

Tests used:
normal mice = experiment: blood sugar of normal mice; type: in vivo, Kunming species mice; settings: 50 mg/kg intragastric, 10 days, fasted 10 hours
Protocol: Blood glucose determination kit (batch number 20140403) is purchased from Nanjing Jiancheng Bioengineering Institute.
Methods: after being acclimatized for 1 week, the 20±2 g Kunming species mice are randomly divided into 3 groups of 12 animals in each. 10 mg/ml extract solution of 0.1 ml (which corresponds to 50 mg/kg) is given to different groups of mice by intragastric administration for 10 days successively, and the control group is given with equal amounts of saline. After the last administration, the mice are fasted for 10 hours and blood is collected from orbit, then detect the blood sugar by blood glucose determination kit.

[1] = system: hyperglycemia KK-A^y mice; experiment: blood sugar of hyperglycemia KK-A^y mice; type: in vivo; set-up: blood sugar: unit not given here; settings: for blood sugar at the 1st day, 0: 1st day 0 h; for blood sugar at the 1st day, 30 min: 1st day 30 min after intragastric administration
Protocol: Materials: accurately weigh the 2 compounds S13 and S28 discussed in example 2, and then add 0.5% CMC-Na to make the solution of 5 mg/ml used for activity test. KK-A^y mice are purchased from Chinese Academy of Medical Sciences & Peking Union Medical College Institute of Animal Studies. Experiments are carried out after adapting to the environment (T=20-24° C., constant humidity: 50-60%, 12 hours light exposure (8:00-20:00), soundproof, free feeding and drinking) for 1 week. Glucometer is purchased from Roche.
Methods: 10 male C57 mice of 6-8 weeks of 20-22 g are used as normal control group (1). Detect the fasting glucose of male KK-A^y mice, which are 6-8 weeks with the weight of 28-32 g, and divide them into different groups according to the blood sugar level and body weight: (2) model control group, (3) which is administered by compound S13 with the dose of 1 mg/kg, (4) which is administered by compound S13 with the dose of 5 mg/kg, (5) which is administered by compound S13 with the dose of 10 mg/kg, (6) which is administered by compound S13 with the dose of 20 mg/kg, (7) which is administered by compound S28 with the dose of 1 mg/kg, (8) which is administered by compound S28 with the dose of 5 mg/kg, (9) which is administered by compound S28 with the dose of 10 mg/kg, (10) which is administered by compound S28 with the dose of 20 mg/kg, (11) which is administered by metformin with the dose of 8 g/kg, (12) which is administered by compound S13 with the dose of 2.5 mg/kg and metformin with the dose of 4 g/kg, (13) which is administered by compound S13 with the dose of 5 mg/kg and metformin with the dose of 4 g/kg, (14) which is administered by compound S28 with the dose of 2.5 mg/kg and metformin with the dose of […], (15) which is administered by compound S28 with the dose of 5 mg/kg and metformin with the dose of […]. Each group has 8 mice, and is administrated successively for 3 weeks. Model control group is given with equal amounts of 0.5% CMC-Na.
1) Effects of drugs on blood sugar: at the first day after administration, the mice are fasted for 2 hours and blood is collected (0 h) to detect the fasting blood sugar. After the compound is given to the mice by intragastric administration for 30 min, blood is collected from tip of tail to detect the blood sugar level.
2) Effects on body weight and blood sugar: the body weight of mice are recorded at the 2th, 5th, 8th, 11th, 14th, 17th, 20th day after administration, and blood is collected from tip of tail to detect the blood sugar level (see table 10).

[2] = system: Wister rats fed with choline deficient diet; experiment: non-alcohol fatty liver disease in rats fed choline deficient (high-fat) diet; type: in vivo; settings: for ALT / HDL-C / LDL-C / Liver index / TC / TG: 4 weeks
Protocol: Serum total cholesterol kit (batch number 20131112), low density lipoprotein LDL-C kit (batch number 20140114), high density lipoprotein HDL-C kit (batch number 20140413), triglyceride TG kit (batch number 20131226) and glutamic-pyruvic transaminase ALT kit (batch number 20131006) are purchased from Nanjing Jiancheng Bioengineering Institute.
Methods: male SPF level Wister rats are randomly divided into groups: (1) normal group (2) model control group (3) which is administered by compound S13 with the dose of 10 mg/kg (4) which is administered by compound S13 with the dose of 20 mg/kg (5) which is administered by compound S28 with the dose of 10 mg/kg […] which is administered by compound S28 with the dose of 20 mg/kg. Each group has 10 mice. The mice of normal group are fed with standard diet, the mice of other groups are fed with choline deficient diet (high-fat diet). Food intake and body weight are detected. Feeding with choline deficient diet are considered as a frequently-used hepatic adipose infiltration modeling method of rodent, which can induce the denaturation of hepatocyte, hepatitis and liver injury, at the same time the increase of blood lipid level can induce the insulin resistance.
After being fed with high-fat diet for 8 weeks, the mice of treated group are given drugs for 4 weeks successively. Model group and normal group are given with equal amounts of 0.5% CMC-Na. After administration of medicine for 4 weeks, the rats are executed under anesthesia, and then hepatic tissue and blood are collected.
2) Contents of serum total cholesterol, low density lipoprotein, high density lipoprotein and triglyceride.
3) Contents of glutamic-pyruvic transaminase.

[3] = 2st day, 20 mg/kg, groups 6, 10
[4] = 5st day, 20 mg/kg, groups 6, 10
[5] = 8st day, 20 mg/kg, groups 6, 10
[6] = 11st day, 10 mg/kg, groups 5, 9
[7] = 11st day, 20 mg/kg, groups 6, 10
[8] = 14st day, 10 mg/kg, groups 5, 9
[9] = 14st day, 20 mg/kg, groups 6, 10
[10] = 17st day, 10 mg/kg, groups 5, 9
[11] = 17st day, 20 mg/kg, groups 6, 10
[12] = 20st day, 10 mg/kg, groups 5, 9
[13] = 20st day, 20 mg/kg, groups 6, 10

With `CC(C)=CCC/C(C)=C/CCC1=C[C@H](c2cc(O)ccc2O)OC1=O` [S13, (R,E)-5-(2,5-dihydroxyphenyl)-3-(4,8-dimethylnona-3,7-dien-1-yl)furan-2(5H)-one] the blood sugar (normal mice) was 4.21 mmol/L, the “effect on blood sugar of hyperglycemia mice (in words)” value [1] was “significant effects on blood sugar of hyperglycemia mice” and the “blood sugar at the 1st day, 0” value ([1]; 1 mg/kg, groups 3, 7) was 14.7. The “blood sugar at the 1st day, 0” value ([1]; 5 mg/kg, groups 4, 8) was 14.8, the “blood sugar at the 1st day, 0” value ([1]; 10 mg/kg, groups 5, 9) was 14.9 and the “blood sugar at the 1st day, 0” value ([1]; 20 mg/kg, groups 6, 10) was 14.7. For the same compound, the “blood sugar at the 1st day, 30 min” value ([1]; 1 mg/kg, groups 3, 7) was 11.1, the “blood sugar at the 1st day, 30 min” value ([1]; 5 mg/kg, groups 4, 8) was 9.2 and the “blood sugar at the 1st day, 30 min” value ([1]; 10 mg/kg, groups 5, 9) was 9.21. For the same compound, the “blood sugar at the 1st day, 30 min” value ([1]; 20 mg/kg, groups 6, 10) was 6.24, the blood sugar ([1]; 2st day, 1 mg/kg, groups 3, 7) was 17.3 and the blood sugar ([1]; 2st day, 5 mg/kg, groups 4, 8) was 10.1. For the same compound, the blood sugar ([1]; 2st day, 10 mg/kg, groups 5, 9) was 13.98, the blood sugar [1, 3] was 13.2 and the blood sugar ([1]; 5st day, 1 mg/kg, groups 3, 7) was 14.1. The blood sugar ([1]; 5st day, 5 mg/kg, groups 4, 8) was 10.8, the blood sugar ([1]; 5st day, 10 mg/kg, groups 5, 9) was 13.5 and the blood sugar [1, 4] was 12.9. It also gave a blood sugar ([1]; 8st day, 1 mg/kg, groups 3, 7) of 13.8, a blood sugar ([1]; 8st day, 5 mg/kg, groups 4, 8) of 7.1 and a blood sugar ([1]; 8st day, 10 mg/kg, groups 5, 9) of 14.1. For the same compound, the blood sugar [1, 5] was 12.8, the blood sugar ([1]; 11st day, 1 mg/kg, groups 3, 7) was 15.1 and the blood sugar ([1]; 11st day, 5 mg/kg, groups 4, 8) was 8.2. It also gave a blood sugar [1, 6] of 14.2, a blood sugar [1, 7] of 12.8 and a blood sugar ([1]; 14st day, 1 mg/kg, groups 3, 7) of 12.3. The blood sugar ([1]; 14st day, 5 mg/kg, groups 4, 8) was 8.2, the blood sugar [1, 8] was 13.9 and the blood sugar [1, 9] was 12.5. The blood sugar ([1]; 17st day, 1 mg/kg, groups 3, 7) was 13.1, the blood sugar ([1]; 17st day, 5 mg/kg, groups 4, 8) was 8.2 and the blood sugar [1, 10] was 14.5. The blood sugar [1, 11] was 12.3, the blood sugar ([1]; 20st day, 1 mg/kg, groups 3, 7) was 12.8 and the blood sugar ([1]; 20st day, 5 mg/kg, groups 4, 8) was 10.1. For the same compound, the blood sugar [1, 12] was 14.59, the blood sugar [1, 13] was 12.5 and the “effect on liver index of fatty liver rats (in words)” value [2] was “effectively decrease the liver index of fatty liver rats”. The ALT ([2]; 10 mg/kg) was 48.24** U/L, the HDL-C ([2]; 10 mg/kg) was 0.57* mmol/L and the LDL-C ([2]; 10 mg/kg) was 0.83* mmol/L. For the same compound, the Liver index ([2]; 10 mg/kg) was 2.85**, the TC ([2]; 10 mg/kg) was 1.81** mmol/L and the TG ([2]; 10 mg/kg) was 1.21** mmol/L. For the same compound, the ALT ([2]; 20 mg/kg) was 33.56** U/L, the HDL-C ([2]; 20 mg/kg) was 0.72** mmol/L and the LDL-C ([2]; 20 mg/kg) was 0.71** mmol/L. For the same compound, the Liver index ([2]; 20 mg/kg) was 2.47**, the TC ([2]; 20 mg/kg) was 1.37** mmol/L and the TG ([2]; 20 mg/kg) was 1.08** mmol/L.

`CC(C)=CCC/C(C)=C/CCC1=C[C@@H](c2cc(O)ccc2O)OC1=O` [S28, (S,E)-5-(2,5-dihydroxyphenyl)-3-(4,8-dimethylnona-3,7-dien-1-yl)furan-2(5H)-one] was tested, and the blood sugar (normal mice) was 4.02 mmol/L, the “effect on blood sugar of hyperglycemia mice (in words)” value [1] was “significant effects on blood sugar of hyperglycemia mice” and the “blood sugar at the 1st day, 0” value ([1]; 1 mg/kg, groups 3, 7) was 14.5. For the same compound, the “blood sugar at the 1st day, 0” value ([1]; 5 mg/kg, groups 4, 8) was 14.5, the “blood sugar at the 1st day, 0” value ([1]; 10 mg/kg, groups 5, 9) was 14.2 and the “blood sugar at the 1st day, 0” value ([1]; 20 mg/kg, groups 6, 10) was 14.1. For the same compound, the “blood sugar at the 1st day, 30 min” value ([1]; 1 mg/kg, groups 3, 7) was 11.3, the “blood sugar at the 1st day, 30 min” value ([1]; 5 mg/kg, groups 4, 8) was 9.42 and the “blood sugar at the 1st day, 30 min” value ([1]; 10 mg/kg, groups 5, 9) was 9.32. For the same compound, the “blood sugar at the 1st day, 30 min” value ([1]; 20 mg/kg, groups 6, 10) was 6.24, the blood sugar ([1]; 2st day, 1 mg/kg, groups 3, 7) was 17.23 and the blood sugar ([1]; 2st day, 5 mg/kg, groups 4, 8) was 10.2. It also gave a blood sugar ([1]; 2st day, 10 mg/kg, groups 5, 9) of 13.12, a blood sugar [1, 3] of 13.25 and a blood sugar ([1]; 5st day, 1 mg/kg, groups 3, 7) of 14.1. The blood sugar ([1]; 5st day, 5 mg/kg, groups 4, 8) was 10.8, the blood sugar ([1]; 5st day, 10 mg/kg, groups 5, 9) was 13.5 and the blood sugar [1, 4] was 12.5. For the same compound, the blood sugar ([1]; 8st day, 1 mg/kg, groups 3, 7) was 13.8, the blood sugar ([1]; 8st day, 5 mg/kg, groups 4, 8) was 7.12 and the blood sugar ([1]; 8st day, 10 mg/kg, groups 5, 9) was 14.1. It also gave a blood sugar [1, 5] of 12.8, a blood sugar ([1]; 11st day, 1 mg/kg, groups 3, 7) of 15.3 and a blood sugar ([1]; 11st day, 5 mg/kg, groups 4, 8) of 8.21. The blood sugar [1, 6] was 14.3, the blood sugar [1, 7] was 12.9 and the blood sugar ([1]; 14st day, 1 mg/kg, groups 3, 7) was 12.4. The blood sugar ([1]; 14st day, 5 mg/kg, groups 4, 8) was 8.3, the blood sugar [1, 8] was 13.2 and the blood sugar [1, 9] was 12.5. It also gave a blood sugar ([1]; 17st day, 1 mg/kg, groups 3, 7) of 13.1, a blood sugar ([1]; 17st day, 5 mg/kg, groups 4, 8) of 8.2 and a blood sugar [1, 10] of 14.5. The blood sugar [1, 11] was 12.5, the blood sugar ([1]; 20st day, 1 mg/kg, groups 3, 7) was 12.43 and the blood sugar ([1]; 20st day, 5 mg/kg, groups 4, 8) was 10.23. For the same compound, the blood sugar [1, 12] was 14.12, the blood sugar [1, 13] was 12.45 and the “effect on liver index of fatty liver rats (in words)” value [2] was “effectively decrease the liver index of fatty liver rats”. The ALT ([2]; 10 mg/kg) was 45.97** U/L, the HDL-C ([2]; 10 mg/kg) was 0.61** mmol/L and the LDL-C ([2]; 10 mg/kg) was 0.79** mmol/L. The Liver index ([2]; 10 mg/kg) was 2.91**, the TC ([2]; 10 mg/kg) was 1.95** mmol/L and the TG ([2]; 10 mg/kg) was 1.38** mmol/L. The ALT ([2]; 20 mg/kg) was 41.08** U/L, the HDL-C ([2]; 20 mg/kg) was 0.68** mmol/L and the LDL-C ([2]; 20 mg/kg) was 0.70** mmol/L. For the same compound, the Liver index ([2]; 20 mg/kg) was 2.58**, the TC ([2]; 20 mg/kg) was 1.36** mmol/L and the TG ([2]; 20 mg/kg) was 1.15** mmol/L.
